# In patent US20250368687A1, “SHORT SYNTHETIC PEPTIDES AND USES THEREOF IN THE TREATMENT OF ENTEROVIRUS INFECTION” (CITY UNIVERSITY OF HONG KONG, priority 2024, published 2025):
# Tests used:
# p38 MAPK = conditions: background statement; cited from earlier work
# EV-A71 IRES activity = experiment: Dual-luciferase IRES reporter assay in RD cells; assay type: cell-based; conditions: 2 μM for 2 h, RD cells co-transfected with 2Apro and pIRES reporter plasmids 24 h
# Method: FIGS. 6A-6C Ser78 phosphorylation-deficient Hsp27 suppresses the viral IRES activity. (FIG. 6A) RD cells were pretreated with 2 μM SB203580 for 2 h, then co-transfected with a 2A^pro-expressing plasmid (200 ng) and pIRES reporter plasmid (200 ng) for 24 h, then the luciferase activity was measured. (FIG. 6B) HEK 293T cells were co-transfected with Hsp27 (WT, 3A, S15A, S78A, and S82A) plasmid (800 ng), pIRES reporter plasmid (200 ng) and 2A^pro-expressing plasmid (200 ng) for 24 h, then the luciferase activity was measured. (FIG. 6C) HEK 293T cells were co-transfected with Hsp27 (WT, 3A, S15A, S78A, 3D S15D, and S78D) plasmid (800 ng), pIRES reporter plasmid (200 ng) and 2A^C110A-expressing plasmid (200 ng) for 24 h, then the luciferase activity was measured. Statistical analyses were carried out using Student's t-test. *: p<0.05, **: p<0.01, ***: p<0.001. Data are expressed as mean ±SD.
# HEK 293T cells were seeded in 24-wells, and then co-transfected with plasmids to simultaneously express 2A^pro (200 ng), pIRES reporter (200 ng), and the wild-type Hsp27 or its mutants (800 ng). […] The Renilla luciferase (RLuc) and Firefly luciferase (FLuc) activity were determined by using a dual-luciferase reporter assay (Promega) according to the manufacturer's instructions in a Lumat LB9507 bioluminometer. […]
# RD cells = experiment: CCK-8 assay; assay type: cell-based; conditions: data not shown
# Method: RD cells were seeded in 96-well cell plates (1×10^4/well) and placed in the 5% CO2 incubator for 1 day. Then the cells were treated with peptides for 2 days. 90 μl medium and 10 μl of CCK-8 (BioSharp, BS350B) was added to each well of the 96-well plate, which were incubated at 37° C. for 1 h. A microplate reader (BioTek, Synergy H1) was used to measure the OD value of each well at 450 nm.
Compound,"secretion of inflammatory factors (such as IL-6, IL-10, and TNF-α) (p38 MAPK)",viral replication (p38 MAPK),reduction of IRES activity (EV-A71 IRES activity) [%],CC50 (in words) (RD cells)
"C[S+]([O-])c1ccc(-c2nc(-c3ccncc3)c(-c3ccc(F)cc3)[nH]2)cc1 (stereo not shown) [SB203580, reference compound]",inhibited,reduced,32,–
"Ac-RKKRRQRRRYSREANQPKPSPKRESGEE-NH2 [NC, reference compound]",–,–,–,high
